According to US10421782B2, “Cyclic cationic peptides with antimicrobial activity” (I.C.F. S.R.L., priority 2012, dated 2019):
Values after ≈ are worked out from the molar mass of the structure shown. Like-named read-outs stand apart in the source and are kept apart here. Where a SMILES comes first, the peptide text is derived from it. Bridges are numbered along the chain shown (N, C = ends).

How the values were obtained:
[1] = system: Escherichia coli ATCC 25922; assay type: cell-based
Method: (§1) For each bacterial strain, 3-5 morphologically similar colonies were drawn from fresh cultures, inoculated in Brain Hearth Infusion broth liquid medium and incubated at the temperature of 37° C. under shaking at 225 r.p.m. for 3-4 h. Subsequently, the bacterial suspension was centrifuged at 1000 g for 20 min and the thus obtained pellet was resuspended in phosphate buffer 10 mM. Turbidity was measured in a spectrophotometer with absorbance at 600 nm, equivalent in the range 0.08-0.13 to a concentration of about 10^8 CFU/ml. The bacterial suspension was diluted 1:100 in phosphate buffer 10 mM, and within 30 min 50 microliters of such bacterial suspension (10^6 CFU/ml) were inoculated in each well of the microtiter plate, to obtain a final bacterial concentration of about 5×10^5 CFU/ml.
(§2) Several peptides were tested for their ability to inhibit bacterial growth in liquid culture. Fifty microliters of peptide at a concentration comprised between about 0.2 mM and 50 mM were added in 96-well U-bottom plates containing liquid growth medium and one of the following bacteria: Escherichia coli ATCC 25922, P. aeruginosa ATCC 27853, Stenotrophomonas maltophilia ATCC 13637. After 2 hour incubation at 37° C., bacteria were transferred on a solid medium. As a growth control, bacterial cultures were cultured in the absence of peptides.
(§3) The bacterial suspension was put in contact for two hours with different concentrations of the peptide at the temperature of 37° C. After incubation, 20 μl were drawn from the wells of each dilution and seeded on solid medium, agar McConkey. The inoculum was evenly distributed on the agarized medium by means of a sterile disposable loop. After incubation for 24 h at the temperature of 37° C., counting of the bacterial colonies (CFU) was performed.

[2] = system: Pseudomonas aeruginosa ATCC 27853; assay type: cell-based
Method: as §1, §2, §3

[3] = further tests, test of Table 2a

| Compound | MBC E. coli ATCC 25922 ([1]; ATCC 25922) | MBC P. aeruginosa ATCC 27853 ([2]; ATCC 27853) | MBC E. coli ATCC 25922 [1, 3] | MBC P. aeruginosa ATCC 27853 [2, 3] |
| --- | --- | --- | --- | --- |
| N=C(N)NCCC[C@@H]1NC(=O)[C@H](Cc2ccccc2)NC(=O)[C@H](CCCNC(=N)N)NC(=O)[C@H](Cc2ccc(O)cc2)NC(=O)[C@@H]2CCCN2C(=O)[C@H](Cc2ccccc2)NC(=O)[C@@H](NC(=O)[C@H](CCCCN)NC(=O)[C@@H](N)CCCNC(=N)N)CSSC[C@@H](C(=O)N[C@@H](Cc2ccc(O)cc2)C(=O)O)NC(=O)[C@H](CCCCN)NC(=O)[C@H](CCCCN)NC(=O)[C@H](Cc2ccccc2)NC(=O)[C@H](CCCNC(=N)N)NC(=O)[C@H](CCCCN)NC(=O)CNC1=O [SEQ.ID.NO.: 5, Arg*Lys*Cys*Phe*Pro*Tyr*Arg*Phe*Arg*Gly*Lys*Arg*Phe*Lys*Lys*Cys*Tyr*] (H-RKCFPYRFRGKRFKKCY-OH; disulfide 3-16; N-terminus and C-terminus assumed) | 1.08 µg/mL (≈ 0.473 µM) | 1.09 µg/mL (≈ 0.478 µM) | – | – |
| CC(C)C[C@H](NC(=O)[C@@H]1CSSC[C@H](NC(=O)CNC(=O)[C@@H](N)CCCNC(=N)N)C(=O)N[C@@H](Cc2c[nH]c3ccccc23)C(=O)N[C@@H](CCCNC(=N)N)C(=O)N[C@@H](Cc2c[nH]c3ccccc23)C(=O)N[C@@H](CCCCN)C(=O)N[C@@H](Cc2c[nH]c3ccccc23)C(=O)N[C@@H](CCCNC(=N)N)C(=O)NCC(=O)N[C@@H](C(C)C)C(=O)N[C@@H](Cc2c[nH]c3ccccc23)C(=O)N[C@@H](Cc2ccc(O)cc2)C(=O)N[C@@H](CCCCN)C(=O)N[C@@H](CCCCN)C(=O)N1)C(=O)O [SEQ.ID.NO.: 7, Arg*Gly*Cys*Trp*Arg*Trp*Lys*Trp*Arg*Gly*Val*Trp*Tyr*Lys*Lys*Cys*Leu*] (H-RGCWRWKWRGVWYKKCL-OH; disulfide 3-16; N-terminus and C-terminus assumed) | 7.81 µg/mL (≈ 3.38 µM) | 3.4 µg/mL (≈ 1.47 µM) | – | – |
| FFCGNKRWRGNYQGSCK [Peptide P127, reference compound] | – | – | inactive | inactive |
| CC[C@H](C)[C@H](NC(=O)[C@H](C)N)C(=O)N[C@H]1CSSC[C@@H](C(=O)N[C@@H](CCCCN)C(=O)O)NC(=O)[C@H](C)NC(=O)[C@H](CCCCN)NC(=O)[C@H](Cc2c[nH]c3ccccc23)NC(=O)[C@H](CCCCN)NC(=O)[C@H](Cc2c[nH]cn2)NC(=O)CNC(=O)[C@H](CCCNC(=N)N)NC(=O)[C@H](Cc2ccc(O)cc2)NC(=O)[C@H](CCCCN)NC(=O)[C@H](Cc2c[nH]c3ccccc23)NC(=O)[C@H]([C@@H](C)O)NC(=O)[C@H](CCCNC(=N)N)NC1=O [SEQ.ID.NO.: 4, Ala*Ile*Cys*Arg*Thr*Trp*Lys*Tyr*Arg*Gly*His*Lys*Trp*Lys*Ala*Cys*Lys*] (H-AICRTWKYRGHKWKACK-OH; disulfide 3-16; N-terminus and C-terminus assumed) | 17.37 µg/mL (≈ 8.14 µM) | 1.14 µg/mL (≈ 0.534 µM) | – | – |
| ANCWTRKIRGVVGVSCG [Peptide P195, reference compound] | – | – | inactive | inactive |
| C[C@@H](O)[C@@H]1NC(=O)[C@H](Cc2ccccc2)NC(=O)[C@@H](NC(=O)[C@H](CCCCN)NC(=O)[C@@H](N)CCCCN)CSSC[C@@H](C(=O)NCC(=O)O)NC(=O)[C@H](CCCCN)NC(=O)[C@H](CCCNC(=N)N)NC(=O)[C@H](Cc2ccc(O)cc2)NC(=O)[C@H](CC(N)=O)NC(=O)[C@H](CCCCN)NC(=O)CNC(=O)[C@H](CCCNC(=N)N)NC(=O)[C@H](Cc2c[nH]c3ccccc23)NC(=O)[C@H](CCCCN)NC(=O)[C@H](Cc2c[nH]c3ccccc23)NC1=O [SEQ.ID.NO.: 6, Lys*Lys*Cys*Phe*Thr*Trp*Lys*Trp*Arg*Gly*Lys*Asn*Tyr*Arg*Lys*Cys*Gly*] (H-KKCFTWKWRGKNYRKCG-OH; disulfide 3-16; N-terminus and C-terminus assumed) | 1.81 µg/mL (≈ 0.827 µM) | 0.4 µg/mL (≈ 0.183 µM) | – | – |
| AKCRPLHTRGKQSAVCV [Peptide P14, reference compound] | – | – | inactive | inactive |
| CC[C@H](C)[C@@H]1NC(=O)CNC(=O)[C@H](CCCNC(=N)N)NC(=O)[C@H](Cc2c[nH]c3ccccc23)NC(=O)[C@H]([C@@H](C)O)NC(=O)[C@H](Cc2c[nH]c3ccccc23)NC(=O)[C@H](CCCCN)NC(=O)[C@H](CC(C)C)NC(=O)[C@@H](NC(=O)[C@H](CC(N)=O)NC(=O)[C@@H](N)CCCNC(=N)N)CSSC[C@@H](C(=O)N[C@@H](CCCCN)C(=O)O)NC(=O)[C@H](CCCCN)NC(=O)[C@H](CC(C)C)NC(=O)[C@H](Cc2ccc(O)cc2)NC(=O)[C@H]([C@@H](C)O)NC1=O [SEQ.ID.NO.: 22, Arg*Asn*Cys*Leu*Lys*Trp*Thr*Trp*Arg*Gly*Ile*Thr*Tyr*Leu*Lys*Cys*Lys*] (H-RNCLKWTWRGITYLKCK-OH; disulfide 3-16; N-terminus and C-terminus assumed) | – | – | 11.72 µg/mL (≈ 5.41 µM) | 1.08 µg/mL (≈ 0.498 µM) |
| CC(C)C[C@H](NC(=O)[C@@H]1CSSC[C@H](NC(=O)[C@H](CCCCN)NC(=O)CN)C(=O)N[C@@H](Cc2c[nH]c3ccccc23)C(=O)N[C@@H](CCCCN)C(=O)N[C@@H](Cc2c[nH]c3ccccc23)C(=O)N[C@@H](CCCCN)C(=O)N[C@@H](Cc2ccc(O)cc2)C(=O)N[C@@H](CCCNC(=N)N)C(=O)NCC(=O)N[C@@H](Cc2c[nH]cn2)C(=O)N[C@@H](Cc2ccc(O)cc2)C(=O)N[C@@H](Cc2c[nH]c3ccccc23)C(=O)N[C@@H](CCCNC(=N)N)C(=O)N[C@@H]([C@@H](C)O)C(=O)N1)C(=O)O [SEQ.ID.NO.: 8, Gly*Lys*Cys*Trp*Lys*Trp*Lys*Tyr*Arg*Gly*His*Tyr*Trp*Arg*Thr*Cys*Leu*] (H-GKCWKWKYRGHYWRTCL-OH; disulfide 3-16; N-terminus and C-terminus assumed) | 9.26 µg/mL (≈ 4.08 µM) | 1.81 µg/mL (≈ 0.797 µM) | – | – |
| CC[C@H](C)[C@@H]1NC(=O)CNC(=O)[C@H](CCCNC(=N)N)NC(=O)[C@H](Cc2c[nH]c3ccccc23)NC(=O)[C@H](CCCCN)NC(=O)[C@H](Cc2c[nH]c3ccccc23)NC(=O)[C@H](CCCCN)NC(=O)[C@H](CC(C)C)NC(=O)[C@@H](NC(=O)[C@H](CC(N)=O)NC(=O)[C@@H](N)CCCCN)CSSC[C@@H](C(=O)N[C@@H](CC(C)C)C(=O)O)NC(=O)[C@H](CCCCN)NC(=O)[C@H](CCCNC(=N)N)NC(=O)[C@H](Cc2ccc(O)cc2)NC(=O)[C@H]([C@@H](C)O)NC1=O [SEQ.ID.NO.: 9, Lys*Asn*Cys*Leu*Lys*Trp*Lys*Trp*Arg*Gly*Ile*Thr*Tyr*Arg*Lys*Cys*Leu*] (H-KNCLKWKWRGITYRKCL-OH; disulfide 3-16; N-terminus and C-terminus assumed) | 7.56 µg/mL (≈ 3.44 µM) | 2.57 µg/mL (≈ 1.17 µM) | – | – |
| CC[C@H](C)[C@H](N)C(=O)N[C@@H](CCCNC(=N)N)C(=O)N[C@H]1CSSC[C@@H](C(=O)N[C@@H](CC(C)C)C(=O)O)NC(=O)[C@H](CCCCN)NC(=O)[C@H](CCCCN)NC(=O)[C@H](Cc2c[nH]c3ccccc23)NC(=O)[C@H](CCC(N)=O)NC(=O)[C@H](Cc2c[nH]cn2)NC(=O)CNC(=O)[C@H](CCCNC(=N)N)NC(=O)[C@H](Cc2ccc(O)cc2)NC(=O)[C@H](CC(N)=O)NC(=O)[C@H](Cc2c[nH]c3ccccc23)NC(=O)[C@H]([C@@H](C)O)NC(=O)[C@H](C)NC1=O [SEQ.ID.NO.: 10, Ile*Arg*Cys*Ala*Thr*Trp*Asn*Tyr*Arg*Gly*His*Gln*Trp*Lys*Lys*Cys*Leu*] (H-IRCATWNYRGHQWKKCL-OH; disulfide 3-16; N-terminus and C-terminus assumed) | 24.6 µg/mL (≈ 11.4 µM) | 12.08 µg/mL (≈ 5.59 µM) | – | – |
